Assay [1] has as its system whole blood. In words: Cell separation on whole blood (Polymorphprep gradient), activity in separated fractions. The assay is classed as cell-based, human. Details: tested at 2 mCi (74 MBq) in 3 mL blood. The following applies: for Cell separation on whole blood (activity %): Polymorphprep: fraction: Polymorphprep gradient; for Cell separation on whole blood (activity %): Erythrocytes: fraction: erythrocytes; for Cell separation on whole blood (activity %): Leukocytes: fraction: leukocytes; for Cell separation on whole blood (activity %): Medium: fraction: medium. The procedure: (§1) The radiopharmaceuticals of table I (2 mCi; 74 MBq) are incubated in 3 mL of a fresh sample of human blood for 10 minutes under slow shaking. The blood composition depends upon each sample taken from healthy volunteers (average composition: 1.6±0.3.10^10 Red Globules (RG) and 2.2±0.3.10^7 White Globules (WG) with 1.2±0.3.10^7 Polymorphs (57±9%) and 0.7±0.3.10^7 Lymphocytes (35±4%)]. Non-bound radioactivity is removed by successive washings (2×10 mL of RPMI culture medium 1640) of 10 minutes at 600 g. The yield of cell labeling is determined in a CAPINTEC CRC 120 activimeter. Cell viability is controlled by the Trypan blue exclusion test.
(§2) The results obtained, namely the labeling yield (Yield) and the percentages of activity in the separated fractions are given in tables 3 to 5.
In a first experiment, a separation of the blood constituents is made on a double density Polymorphprep® gradient.
Whole blood from healthy volunteers is labeled with 2 mCi of [^99mTc(ArCS3)2(ArCS2)] following the method described above. The blood constituents are then separated by the Polymorphprep® double density gradient into two separate fractions: lymphocytes and polymorphs/erythrocytes. The whole blood, diluted in 2-3 mL RPMI, is initially delicately placed on the Polymorphprep® gradient and then centrifuged (300 g, 20 min, 37° C.). […] Counting is made on each fraction using a MAXM Y07 00 367 counter in order to confirm cell constitution.

The subject of assay [2] is human blood. In words: Labeling of blood cells: yield of cell labeling in whole blood. The assay is classed as cell-based. The following applies: 2 mCi (74 MBq) in 3 mL fresh human blood, 10 minutes, after washings. As for the experimental part:
as §1, §2

The test system of assay [3] is leukocytes. The note with it: in the presence of blood cells (erythrocytes, leukocytes, platelets); documents [3], [4], [6]; cited from earlier work.

The source of these data is US6469146B1, “Radiopharmaceutical products suitable for the selective labeling of lymphocytes, and their preparation” (Cis Bio International, priority 2000, dated 2002).

`S=C(Cc1ccccc1)S[S][99Tc]([S]SC(=S)Cc1ccccc1)[S]C(=S)Cc1ccccc1` [Example 27, [^99mTc(PhCH2CS3)2(PhCH2CS2)]]: in assay [1], the “Cell separation on whole blood (activity %): Polymorphprep” value amounted to 10%, the “Cell separation on whole blood (activity %): Erythrocytes” value is reported as 11%, the “Cell separation on whole blood (activity %): Leukocytes” value was 77% and the “Cell separation on whole blood (activity %): Medium” value was 1%. For the same molecule, the “Yield (±3%) of cell labeling” value in assay [2] was found to be 88%.
In the same order, the values of `S=C(CCc1ccccc1)S[S][99Tc]([S]SC(=S)CCc1ccccc1)[S]C(=S)CCc1ccccc1` [Example 28, [^99mTc(PhCH2CH2CS3)2(PhCH2CH2CS2)]] are 2%, 16%, 80%, 2% and 91%.
Take `S=C(CCc1ccccc1)S[S][99Tc]([S]SC(=S)CCc1ccccc1)[S]C(=S)CCc1ccccc1` [Example 29, [^99mTc(PhCH2CH2CS3)2(PhCH2CH2CS2)]]: in assay [1], the “Cell separation on whole blood (activity %): Polymorphprep” value is listed as 6%, the “Cell separation on whole blood (activity %): Erythrocytes” value was found to be 58%, the “Cell separation on whole blood (activity %): Leukocytes” value is listed as 35% and the “Cell separation on whole blood (activity %): Medium” value came out at 1%. Also, the “Yield (±3%) of cell labeling” value in assay [2] is given as 43%.
`CCON(CC)C(=S)[S][99Tc](#[N])[S]C(=S)N(CC)OCC` [[^99mTcN(NOET)2], nitrurobis(N-ethoxy-N-ethyldithiocarbamato)technetium-99m]: the “blood cell selectivity of labeling” value in assay [3] was “leukocyte labeling, of granulocytes in particular”.
In the case of [^99mTCN(CH3)(CH2)8CS2)2], the “blood cell selectivity of labeling” value in assay [3] is reported as “selectivity for lymphocytes”.
Turning to “[^99mTc(2-Me-naphCS3)2(2-Me-naphCS2)] [Example 25]”, in assay [1], the “Cell separation on whole blood (activity %): Polymorphprep” value was 4%, the “Cell separation on whole blood (activity %): Erythrocytes” value was found to be 10%, the “Cell separation on whole blood (activity %): Leukocytes” value came out at 85% and the “Cell separation on whole blood (activity %): Medium” value turned out to be 1%. For the same molecule, the “Yield (±3%) of cell labeling” value in assay [2] amounted to 96%.
Consider “[^99mTc(2-Me-naphCS3)2(2-Me-naphCS2)] [Example 26]”, for which, in assay [1], the “Cell separation on whole blood (activity %): Polymorphprep” value came out at 2%, the “Cell separation on whole blood (activity %): Erythrocytes” value is reported as 15%, the “Cell separation on whole blood (activity %): Leukocytes” value is given as 79% and the “Cell separation on whole blood (activity %): Medium” value is given as 4%. Further, the “Yield (±3%) of cell labeling” value in assay [2] was 85%.
The like results for “[^99mTc(C6H12CS3)2CS2(C6H12CS2)] [Example 30]” were, in that order, 10%, 13%, 75%, 2% and 97%.
On to “[^99mTc(C6H12CS3)2CS2(C6H12CS2)] [Example 31]”, for which, in assay [1], the “Cell separation on whole blood (activity %): Polymorphprep” value is reported as 3%, the “Cell separation on whole blood (activity %): Erythrocytes” value stood at 29% and the “Cell separation on whole blood (activity %): Leukocytes” value amounted to 68%. The “Yield (±3%) of cell labeling” value in assay [2] is reported as 63%.
